Measurements published in ChEMBL document CHEMBL3044594, “Comparison of the inhibitory action of synthetic capsaicin analogues with various NADH-ubiquinone oxidoreductases” (Biochim Biophys Acta, 1996).
Active and inactive are the calls of the source. The calls are words filed in the database; no cut-off is given here.

Assays:
Escherichia coli = assay: Inhibition of Escherichia coli GR19N NDH2 assessed as […] reductase activity at 100 uM relative to control
Solanum tuberosum [1] = assay: Inhibition of Solanum tuberosum (potato) inner mitochondrial membrane NDH2 assessed as […] reductase activity at 100 uM relative to control
Solanum tuberosum [2] = assay: Inhibition of Solanum tuberosum (potato) submitochondrial particle NDH1 assessed as deaminoNADH-DB reductase activity

Structure (SMILES)	inhibition (Escherichia coli)	inhibition (Solanum tuberosum [1])	pI50 (Solanum tuberosum [2])
CCCCCCCCCCCC(=O)NCc1ccccc1	inactive	inactive	–
CCCCCCCCCCCC(=O)NCc1ccc(Cl)c(Cl)c1	70%	inactive	–
CCCCCCCCCCCC(=O)NCc1ccc(C)c(C)c1	60%	inactive	–
COc1ccc(CNC(=O)c2ccc(-c3ccccc3)cc2)cc1OC	inactive	inactive	–
COc1ccc(CNC(=O)c2ccc(Oc3ccc(C)cc3)cc2)cc1OC	inactive	inactive	inactive
COc1ccc(CNC(=O)c2ccccc2)cc1OC	inactive	inactive	inactive
COc1ccc(CNCc2ccc(Oc3ccc(C(C)(C)C)cc3)cc2)cc1OC	60%	inactive	–
CCCCCCCCCCCC(=O)NCc1cc(C)ccc1C	60%	inactive	–
COc1ccc(CNC(=O)c2ccc(C(C)(C)C)cc2)cc1OC	inactive	inactive	inactive
CCCCCCCCCCCC(=O)NCc1cccc(OC)c1	inactive	60%	–
COc1ccc(OC)c(CNC(=O)c2ccc(Oc3ccc(C(C)(C)C)cc3)cc2)c1	60%	–	–
CCCCCCCOc1cccc(C(=O)NCc2ccc(OC)c(OC)c2)c1	60%	inactive	–
COc1ccc(CNC(=O)c2ccc(Oc3ccc(C(C)(C)C)cc3)cc2)cc1OC	60%	100%	–
CCCCCCCCCCCC(=O)NCc1ccccc1OC	inactive	inactive	–
CCCCCCCCCCOc1ccc(C(=O)NCc2ccc(OC)c(OC)c2)cc1	70%	inactive	inactive
CCCCCCCCCCCC(=O)NCc1cc(OC)cc(OC)c1	inactive	inactive	–
C/C=C(\C)[C@H](O)[C@H](C)/C=C(C)/C=C/C/C(C)=C/Cc1nc(OC)c(OC)c(O)c1C	50%	–	–
C=C(C)[C@H]1Cc2c(ccc3c2O[C@@H]2COc4cc(OC)c(OC)cc4[C@@H]2C3=O)O1	70%	inactive	–
CCCCCCCOc1ccc(C(=O)NCc2ccc(OC)c(OC)c2)cc1	60%	inactive	–
COc1cc(CNC(=O)CCCC/C=C/C(C)C)ccc1O	20%	inactive	–
CCCCc1ccc(Oc2ccc(C(=O)NCc3ccc(OC)c(OC)c3)cc2)cc1	60%	inactive	–
CCCCCCCCCCCC(=O)NCc1ccc2c(c1)OCO2	60%	inactive	–
CCCCCCCCCCCC(=O)NCc1ccc(OC)cc1OC	inactive	inactive	–
COc1ccc(CNC(=O)c2ccc(OCc3ccccc3)cc2)cc1OC	inactive	inactive	inactive
CCCCCCCCc1ccc(C(=O)N(C)Cc2ccc(OC)c(OC)c2)cc1	60%	–	–
CCCCCCCCCCCC(=O)N(C)Cc1cc(OC)ccc1OC	30%	–	–
CCCCCCCCCCCC(=O)N1CCc2cc(OC)c(OC)cc2C1	inactive	–	–

Structure (SMILES)	inhibition (Escherichia coli)	inhibition (Solanum tuberosum [1])	pI50 (Solanum tuberosum [2])
CCCCCCCCCCCC(=O)N(C)Cc1ccc(OC)c(OC)c1	inactive	–	–
COc1ccc(CN(C)C(=O)c2ccc(Oc3ccc(C(C)(C)C)cc3)cc2)cc1OC	40%	inactive	–
CCCCCCCCCC(=O)NCCCc1ccc(OC)c(OC)c1	40%	inactive	inactive
COc1ccc(CNC(=O)c2ccc(Oc3ccc(Cc4ccccc4)cc3)cc2)cc1OC	50%	inactive	–
CCCCCCCCc1ccc(C(=O)NCc2ccc(OC)c(OC)c2)cc1	50%	inactive	–
COc1ccc(CNC(=O)c2ccc(C)cc2)cc1OC	inactive	inactive	–
COc1ccc(CNC(=O)c2ccccc2C)cc1OC	inactive	inactive	inactive
CCCCCCCCCCNC(=O)CCc1ccc(OC)c(OC)c1	40%	inactive	–
CCCCCCCOc1ccc(C(=O)NCc2ccc(OC)c(OC)c2)c(O)c1	90%	30%	–
CCCCCCCCCCCCNC(=O)c1ccc(OC)c(OC)c1	inactive	inactive	–
CCCCCCCCc1ccc(C(=O)NCc2cc(OC)ccc2OC)cc1	60%	–	–
CCCCCCCCCCCC(=O)NCc1ccc(O)c(OC)c1	70%	inactive	inactive
CCCCCCCCCCCC(=O)NCc1ccc(OC)c(OC)c1	inactive	–	–
COc1ccc(CNC(=O)c2cccc3ccccc23)cc1OC	inactive	inactive	–
CCCCCCCCCCCC(=O)NCc1cc(OC)ccc1OC	inactive	100%	–
CCCCCCCCCCCC(=O)NCc1cccc(OC)c1OC	inactive	inactive	–
CCCCCCCCCCCCC(=O)Nc1ccc(OC)c(OC)c1	inactive	inactive	–
CCCCCCCCCCCNC(=O)Cc1ccc(OC)c(OC)c1	inactive	inactive	–
Cc1nn(C)c(Oc2ccccc2)c1/C=N/OCc1ccc(C(=O)OC(C)(C)C)cc1	60%	–	–
COc1ccc(CNC(=O)c2ccc(Oc3ccccc3C)cc2)cc1OC	90%	–	inactive
COc1ccc(CNC(=O)c2ccc3ccccc3c2)cc1OC	inactive	inactive	–
CCCCCCCCCCC(=O)NCCc1ccc(OC)c(OC)c1	inactive	inactive	–
CCC(C)(C)c1ccc(Oc2ccc(C(=O)NCc3ccc(OC)c(OC)c3)cc2)cc1	60%	–	–
CCCCCCCCCCCCNCc1ccc(OC)c(OC)c1	inactive	–	–
CCCCc1ccc(C(=O)NCc2ccc(OC)c(OC)c2)cc1	inactive	inactive	inactive
CCCCCCCCCCCC(=O)NCc1ccc(OC)cc1	80%	100%	–
